Data published in patent US8729133B2, “Method for treating cancer” (Cornell University, priority 2006, dated 2014).

What was measured:
[1] = test system: lactate levels in brain metastases tumors; test: Tumor lactate determination by localized 1H MR spectroscopy before and after oral L-Arginine; type: in vivo, human
Experimental: (§1) L-Arginine hydrochloride was orally administered five times a week, Monday to Friday, during the radiation therapy (RT) course at a dose of about 10 grams dissolved/mixed with about 100 ml of water and administered to a patient/host from about 15-55 to about 20-65 minutes before each fraction of RT. Radiation therapy was administered to patients using techniques known to one skilled in the art of treating cancer patients. After administering L-Arginine hydrochloride to a patient as discussed above, change in lactate levels in the tumor cells was monitored by localized ^1H NMR spectroscopy and compared to those who received placebo.
Single-voxel MR spectroscopic data were obtained by using a double-SE point-resolved spectroscopy (PRESS) sequence with one-pulse water signal suppression mainly from metabolically active fleshy parts (contrast-enhanced areas) of the lesions, while avoiding contamination from scalp fat. Appropriate automatic shimming and water suppression were achieved by using 4-8-Hz line width, 1-kHz spectral width, and the automated software developed by the manufacturer. Spectroscopic data from cubic volumes of 1.5×1.5×1.5-2×2×3 cm were obtained by using the PRESS sequence with 1500/135 ms (TR/TE), 128-256 averages, 1024 data points, and 4000-Hz spectrum width. In most examinations, a voxel size of 2×2×2 cm3 was employed.
The time domain signal intensity was apodized and processed to remove the residual water signal. Post-processing of the spectroscopic data consisted of frequency shift and phase and linear baseline corrections after Fourier transformation. […] Lactate (Lac) peak was calculated at 1.35 ppm (an inverted β-methyl doublet). […] Lactate values were calculated automatically from the area under the peak by using the standard commercial software program provided by the manufacturer.
L-A-HCl was administered (as stated) to 30 patients with unresectable brain metastases. […] Patients were assessed by brain NMR and/or TC (to asses tumor response) and proton magnetic spectroscopy (to determine the metabolic profile of tumors). […]

[2] = test system: brain metastases; test: Randomized study: whole brain radiotherapy with or without oral L-Arginine hydrochloride in patients with unresectable brain metastases (response, survival); type: in vivo, human
Experimental: as §1
Patients with imagenologically proven brain metastases and histologically proven primary or metastatic cancer were eligible for the study. The eligibility criteria included the following: RPA-RTOG class II, measurable brain lesion/s by contrast-enhanced CT or MRI, absolute granulocyte count >2000/mm^3, hemoglobin […] (patients with lower levels were transfused), normal renal (serum creatinine <1.5 mg/dL and 24-h creatinine clearance >60 mL/min) and hepatic functions (aspartate aminotransferase and alanine aminotransferase <2.5 times the upper limit of normal) and no prior treatment for brain metastases. A neurosurgeon examined all eligible patients and their complimentary studies to determine whether their metastases were resectable. Eligible patients with unresectable metastases were randomized.
The present study was performed in accordance with the ethical standards of the Helsinki Declaration. Within two weeks after the diagnosis of brain metastases, eligible patients were randomly assigned to receive whole brain radiotherapy alone (the control group) or L-Arginine monochlorohydrate (L-Arginine Hydrochloride, L-A-HCl) and whole brain radiotherapy. L-Arginine was orally administered, once a day Monday to Friday, during the radiation therapy (RT) course at a dose of about 10 grams, immediately reconstituted with 100 ml of water and given about 55 to 65 minutes before each fraction of RT.
During RT, all patients were irradiated with ^60Co beams. The whole-brain, of all the individuals enrolled in the study, was treated by two lateral fields to a total dose of 32 Gy in 20 fractions of 1.6 Gy each two times a day with a 6 hours interval between treatments (10 days), followed by a 22.4 Gy boost over the evident lesions with the same fractionation schedule (7 days). The spinal cord dose was limited to 40 Gy.
The baseline evaluation included a complete history and physical examination, brain contrast-enhanced CT scans and/or MRI scans, chest radiographs, blood counts, blood chemistry and electrocardiography. A Mini Mental Status Exam (MMSE) was performed for screening intellectual impairment. During the treatment, patients were to be seen three times a week, then weekly for up to one month after finishing radiotherapy, and then monthly until the patient died. All patients were followed up, by the radiation and medical oncology research physicians, without further treatment.
The following criteria defined radiological response and progression. Complete response was defined as a disappearance of all brain lesions seen on contrast-enhanced CT or MRI scans for at least 1 month. Partial response required at least a 50% decrease in brain lesions for at least 1 month. Stable disease was defined as any brain lesion with shrinkage less than 50% or growth less than 25%. Disease progression was defined as any brain lesion in the brain that enlarged more than 25% or any new brain lesion. For measurable disease, standard bi-perpendicular diameters of the two-dimensional tumor image at maximum dimension were applied.
The following criteria defined symptomatic response and progression. Complete response was defined as disappearance of all neurological-related signs or symptoms seen during a physical exam for at least 1 month, with stable or decreasing steroid dose. […]

[3] = 30 patients with unresectable brain metastases vs 30 placebo

## Cl.N=C(N)NCCC[C@H](N)C(=O)O [L-Arginine, S(+)-2-Amino-5-[(aminoiminomethyl)amino]pentanoic acid monohydrochloride]
[1]; about 10 grams orally, in about 60 minutes
  metabolic pattern of the tumors by spectroscopy: favorably modified
[1]; brain metastases, about 60 minutes after about 10 grams orally, NMR (FIG. 2), placebo about 10%
  drop of lactate levels in tumors: about 50%
[1]; brain metastasis, about 60 minutes after about 10 grams orally
  lactate peak in tumor NMR spectrum after vs before administration: decrease
[2]; [3]
  survival compared to placebo: higher
  tumoral response rates compared to placebo: higher
[2]; RT-Arginine n = 22
  Overall Response: Complete: 6 number of patients
  Overall Response: Partial: 13 number of patients
  Overall Response: Stable Disease: 2 (9%) number of patients (%)
  Radiologic Response: Complete: 6 number of patients
  Radiologic Response: Partial: 13 number of patients
  Radiologic Response: Progressive Disease: 0 number of patients
  Radiologic Response: Stable Disease: 2 (9%) number of patients (%)
  Symptomatic Response: Complete: 20 number of patients
  Symptomatic Response: Partial: 1 number of patients
  Symptomatic Response: Progressive Disease: 0 (0%) number of patients (%)
  Symptomatic Response: Stable Disease: 1 (5%) number of patients (%)
[2]; RT-Arginine n = 22, ECOG response guidelines
  Overall Response: Total responses: 18 (81%) number of patients (%)
[2]; RT-Arginine n = 22, about 10 grams orally before each RT fraction
  Symptomatic Response: Total responses: 21 (95%) number of patients (%)
[2]; RT-Arginine n = 22, contrast-enhanced CT or MRI
  Radiologic Response: Total responses: 18 (81%) number of patients (%)
[2]; RT-Arginine n = 22, not assessed counted as progressive
  Overall Response: Progressive Disease: 1 (5%) number of patients (%)
[2]; RT-Arginine n = 22, patients without follow-up scan
  Radiologic Response: Not assessed: 1 (5%) number of patients (%)
[2]; patients with brain metastases, about 10 grams L-Arginine orally, Kaplan-Meier (FIG. 1), placebo 2 months
  median survival time: 8 months
